Assays:
[1] = test system: children undergoing tonsillectomy; test: Respiratory depression and prolonged PACU stay due to RD by ABCB1 genotype (Example 7)
Text: Children 6-15 years undergoing elective outpatient tonsillectomy were eligible for the study and recruited on the day of surgery. […] Clinical criteria for OSA designation included sleep disordered breathing with a history of snoring and either sleep pauses lasting more than 10 seconds or daytime drowsiness. Children were excluded from the study if they or their parents were non-English speaking.
All participants received standard perioperative care. Anesthesia was induced using sevoflurane followed by a propofol (2 mg/kg) bolus to facilitate endotracheal intubation. Anesthesia was maintained with sevoflurane without the use of neuromuscular blockade. […] All children receive prophylactic ondansetron (0.1 mg/kg) and dexamethasone (0.1 mg/kg) intraoperatively.
Duration of PACU stay (time to achieve PACU discharge readiness) was defined as the duration in PACU before achieving the following discharge criteria. […] This is discharge readiness time is different from actual PACU discharge time as delays due to social reasons (e.g. waiting for car rides) were not included.
Metrics for analgesic effectiveness and opioid-related adverse effects were recorded for each participant. For the metrics for opioid-related adverse effects, this study focused on two clinically and economically important outcomes: clinical RD and prolonged PACU stay (>90 minutes) secondary to respiratory depression assessed consistently by the research coordinator.
Blood was collected from each participant in the operating room under anesthesia and the DNA was isolated the same day and stored at −20 degree Celsius. Batched genotyping was performed after clinical data was entered on all study participants. The TaqMan allelic discrimination system assays and Genotyper Softerware Version 1.0.1 (Life Technologies, Applied Biosystems, Forest City, Calif.) were used to analyse and report the following ABCB1 polymorphisms: rs1045642, rs2032582, rs1128503, rs2229109, and rs9282564.
Prior to analysis, data qualities were examined. For the ABCB1 variants, allelic and genotype frequencies were assessed in white and black patients separately, and Hardy Weinberg equilibrium (HWE) was tested. To analyze binary outcomes (RD, prolonged PACU secondary to RD and analgesic intervention need), logistic regression was performed. […] Thus, maximum FLACC scores were analyzed using a zero-inflated negative binomial model to appropriately capture the distribution of this variable. […] To select the best fitting model, log likelihood, Akaike and Bayesian Information criterion were compared, and residuals were examined. […] To assess the single SNP association with the outcomes, additive models were used, in which the genotypes were recoded and tested as continuous variables. For the four bi-allelic SNPs, genotypes were recoded to 0, 1 and 2 according to the number of minor alleles. For rs2032582, GG genotype was recoded as 0; GA and GT genotypes were combined and recoded as 1, and TT and TA genotypes as 2. Statistical modeling was conducted with white and black patients separately and combined. When races were combined, the effects of race and race*SNP interaction were tested.

[2] = test system: children undergoing tonsillectomy; test: Analgesic effectiveness outcomes by sex and morphine dose (Example 6)
[3] = F, intra-op morphine >0.2 mg/kg
[4] = F, intra-op morphine >0.1-0.2 mg/kg
[5] = F, intra-op morphine ≤0.1 mg/kg
[6] = M, intra-op morphine >0.2 mg/kg
[7] = M, intra-op morphine >0.1-0.2 mg/kg
[8] = M, intra-op morphine ≤0.1 mg/kg

CN1CC[C@]23c4c5ccc(O)c4O[C@H]2[C@@H](O)C=C[C@H]3[C@H]1C5 [morphine]
patients with RD ([1]; 263 patients): 19%
patients with prolonged PACU stay due to RD ([1]; 263 patients): 11%
Prolonged PACU due to RD % ([1]; Blacks, ABCB1 rs1045642 CC, N=27): 7%
Prolonged PACU due to RD % ([1]; Blacks, ABCB1 rs1045642 TC, N=14): 21%
Prolonged PACU due to RD % ([1]; Blacks, ABCB1 rs1045642 TT, N=3): 33%
Prolonged PACU due to RD % ([1]; Blacks, ABCB1 rs1128503 CC, N=24): 8%
Prolonged PACU due to RD % ([1]; Blacks, ABCB1 rs1128503 TC, N=18): 17%
Prolonged PACU due to RD % ([1]; Blacks, ABCB1 rs1128503 TT, N=2): 50%
Prolonged PACU due to RD % ([1]; Blacks, ABCB1 rs2032582 GA, N=1): 0%
Prolonged PACU due to RD % ([1]; Blacks, ABCB1 rs2032582 GG, N=35): 11%
Prolonged PACU due to RD % ([1]; Blacks, ABCB1 rs2032582 GT, N=8): 25%
Prolonged PACU due to RD % ([1]; Blacks, ABCB1 rs2229109 CA, N=1): 0%
Prolonged PACU due to RD % ([1]; Blacks, ABCB1 rs2229109 CC, N=43): 14%
Prolonged PACU due to RD % ([1]; Blacks, ABCB1 rs9282564 AA, N=41): 10%
Prolonged PACU due to RD % ([1]; Blacks, ABCB1 rs9282564 GA, N=3): 67%
Prolonged PACU due to RD % ([1]; Whites, ABCB1 rs1045642 CC, N=49): 4%
Prolonged PACU due to RD % ([1]; Whites, ABCB1 rs1045642 TC, N=100): 15%
Prolonged PACU due to RD % ([1]; Whites, ABCB1 rs1045642 TT, N=70): 10%
Prolonged PACU due to RD % ([1]; Whites, ABCB1 rs1128503 CC, N=70): 9%
Prolonged PACU due to RD % ([1]; Whites, ABCB1 rs1128503 TC, N=102): 13%
Prolonged PACU due to RD % ([1]; Whites, ABCB1 rs1128503 TT, N=47): 11%
Prolonged PACU due to RD % ([1]; Whites, ABCB1 rs2032582 GA, N=7): 0%
Prolonged PACU due to RD % ([1]; Whites, ABCB1 rs2032582 GG, N=65): 9%
Prolonged PACU due to RD % ([1]; Whites, ABCB1 rs2032582 GT, N=100): 14%
Prolonged PACU due to RD % ([1]; Whites, ABCB1 rs2032582 TA, N=1): 0%
Prolonged PACU due to RD % ([1]; Whites, ABCB1 rs2032582 TT, N=46): 9%
Prolonged PACU due to RD % ([1]; Whites, ABCB1 rs2229109 CA, N=14): 14%
Prolonged PACU due to RD % ([1]; Whites, ABCB1 rs2229109 CC, N=205): 11%
Prolonged PACU due to RD % ([1]; Whites, ABCB1 rs9282564 AA, N=171): 8%
Prolonged PACU due to RD % ([1]; Whites, ABCB1 rs9282564 GA, N=46): 20%
Prolonged PACU due to RD % ([1]; Whites, ABCB1 rs9282564 GG, N=2): 100%
Analgesic intervention need in PACU, number of cases ([2]; F, All): 67
Analgesic intervention need in PACU, proportion ([2]; F, All): (31%)
Maximum FLACC pain score, median ([2]; F, All): 2
Maximum NRS pain score, median ([2]; F, All): 6
Number of analgesic interventions, median ([2]; F, All): 1
Post-operative morphine, mean ± SD ([2]; F, All): 0.09 ± 0.05 mg/kg
Prolonged PACU stay due to pain, number of cases ([2]; F, All): 37
Prolonged PACU stay due to pain, proportion ([2]; F, All): (17%)
Analgesic intervention need in PACU, number of cases ([2]; F, OSA No): 35
Analgesic intervention need in PACU, proportion ([2]; F, OSA No): (28%)
Maximum FLACC pain score, median ([2]; F, OSA No): 2
Maximum NRS pain score, median ([2]; F, OSA No): 6
Number of analgesic interventions, median ([2]; F, OSA No): 1
Post-operative morphine, mean ± SD ([2]; F, OSA No): 0.08 ± 0.04 mg/kg
Prolonged PACU stay due to pain, number of cases ([2]; F, OSA No): 21
Prolonged PACU stay due to pain, proportion ([2]; F, OSA No): (17%)
Analgesic intervention need in PACU, number of cases ([2]; F, OSA Yes): 32
Analgesic intervention need in PACU, proportion ([2]; F, OSA Yes): (34%)
Maximum FLACC pain score, median ([2]; F, OSA Yes): 2
Maximum NRS pain score, median ([2]; F, OSA Yes): 5
Number of analgesic interventions, median ([2]; F, OSA Yes): 1
Post-operative morphine, mean ± SD ([2]; F, OSA Yes): 0.09 ± 0.06 mg/kg
Prolonged PACU stay due to pain, number of cases ([2]; F, OSA Yes): 16
Prolonged PACU stay due to pain, proportion ([2]; F, OSA Yes): (17%)
Analgesic intervention need in PACU, number of cases (%) [2, 3]: 22 (51)
Maximum FLACC pain score, median (IQR) [2, 3]: 1 (0-5)
Maximum NRS pain score, median (IQR) [2, 3]: 6 (3-9)
Number of analgesic interventions, median (IQR) [2, 3]: 1 (0-1)
Post-operative morphine, mean ± SD [2, 3]: 0.10 ± 0.05 mg/Kf
Prolonged PACU stay due to pain, number of cases (%) [2, 3]: 12 (28)
Analgesic intervention need in PACU, number of cases (%) [2, 4]: 40 (61)
Maximum FLACC pain score, median (IQR) [2, 4]: 2 (0-5)
Maximum NRS pain score, median (IQR) [2, 4]: 5 (2-8)
Number of analgesic interventions, median (IQR) [2, 4]: 1 (0-1)
Post-operative morphine, mean ± SD [2, 4]: 0.09 ± 0.05 mg/Kf
Prolonged PACU stay due to pain, number of cases (%) [2, 4]: 22 (33)
Analgesic intervention need in PACU, number of cases (%) [2, 5]: 5 (100)
Maximum FLACC pain score, median (IQR) [2, 5]: 3 (3-4)
Maximum NRS pain score, median (IQR) [2, 5]: 8 (6-10)
Number of analgesic interventions, median (IQR) [2, 5]: 1 (1-2)
Post-operative morphine, mean ± SD [2, 5]: 0.07 ± 0.03 mg/Kf
Prolonged PACU stay due to pain, number of cases (%) [2, 5]: 3 (60)
Analgesic intervention need in PACU, number of cases ([2]; M, All): 61
Analgesic intervention need in PACU, proportion ([2]; M, All): (28%)
Maximum FLACC pain score, median ([2]; M, All): 2
Maximum NRS pain score, median ([2]; M, All): 5
Number of analgesic interventions, median ([2]; M, All): 1
Post-operative morphine, mean ± SD ([2]; M, All): 0.09 ± 0.05 mg/kg
Prolonged PACU stay due to pain, number of cases ([2]; M, All): 36
Prolonged PACU stay due to pain, proportion ([2]; M, All): (16%)
Analgesic intervention need in PACU, number of cases ([2]; M, OSA No): 35
Analgesic intervention need in PACU, proportion ([2]; M, OSA No): (28%)
Maximum FLACC pain score, median ([2]; M, OSA No): 2
Maximum NRS pain score, median ([2]; M, OSA No): 6
Number of analgesic interventions, median ([2]; M, OSA No): 1
Post-operative morphine, mean ± SD ([2]; M, OSA No): 0.09 ± 0.05 mg/kg
Prolonged PACU stay due to pain, number of cases ([2]; M, OSA No): 24
Prolonged PACU stay due to pain, proportion ([2]; M, OSA No): (19%)
Analgesic intervention need in PACU, number of cases ([2]; M, OSA Yes): 26
Analgesic intervention need in PACU, proportion ([2]; M, OSA Yes): (27%)
Maximum FLACC pain score, median ([2]; M, OSA Yes): 4
Maximum NRS pain score, median ([2]; M, OSA Yes): 5
Number of analgesic interventions, median ([2]; M, OSA Yes): 1
Post-operative morphine, mean ± SD ([2]; M, OSA Yes): 0.09 ± 0.05 mg/kg
Prolonged PACU stay due to pain, number of cases ([2]; M, OSA Yes): 12
Prolonged PACU stay due to pain, proportion ([2]; M, OSA Yes): (13%)
Analgesic intervention need in PACU, number of cases (%) [2, 6]: 20 (54)
Maximum FLACC pain score, median (IQR) [2, 6]: 2 (0-5)
Maximum NRS pain score, median (IQR) [2, 6]: 6 (4-7)
Number of analgesic interventions, median (IQR) [2, 6]: 1 (0-1)
Post-operative morphine, mean ± SD [2, 6]: 0.09 ± 0.05 mg/Kf
Prolonged PACU stay due to pain, number of cases (%) [2, 6]: 12 (32)
Analgesic intervention need in PACU, number of cases (%) [2, 7]: 36 (58)
Maximum FLACC pain score, median (IQR) [2, 7]: 3 (1-7)
Maximum NRS pain score, median (IQR) [2, 7]: 5 (2-8)
Number of analgesic interventions, median (IQR) [2, 7]: 1 (0-1)
Post-operative morphine, mean ± SD [2, 7]: 0.10 ± 0.05 mg/Kf
Prolonged PACU stay due to pain, number of cases (%) [2, 7]: 22 (35)
Analgesic intervention need in PACU, number of cases (%) [2, 8]: 5 (83)
Maximum FLACC pain score, median (IQR) [2, 8]: 3 (1-5)
Maximum NRS pain score, median (IQR) [2, 8]: 6 (5-9)
Number of analgesic interventions, median (IQR) [2, 8]: 1 (1-2)
Post-operative morphine, mean ± SD [2, 8]: 0.07 ± 0.04 mg/Kf
Prolonged PACU stay due to pain, number of cases (%) [2, 8]: 2 (33)
sex-specific morphine effects on analgesic outcomes ([2]; univariate or multivariate modeling): no evidence of sex-specific morphine effects
